Where a name gives a salt, the structure may show the parent alone. Read-outs that look alike come from different tables or passages of the source.
Target: human σ1 receptor (Homo sapiens, UniProt Q99720)
Test: biochemical
Type: binding
Parameters: μ and σ1 dual binding: key to the marks not given beside the values
[1] = read-out: μ and σ1 dual binding
[2] = combined class from Ki-σ1 (human σ1 receptor, A1) and Ki-μ (human μ-opioid receptor, A2) radioligand binding

Sequence of human σ1 receptor (Q99720 whole entry): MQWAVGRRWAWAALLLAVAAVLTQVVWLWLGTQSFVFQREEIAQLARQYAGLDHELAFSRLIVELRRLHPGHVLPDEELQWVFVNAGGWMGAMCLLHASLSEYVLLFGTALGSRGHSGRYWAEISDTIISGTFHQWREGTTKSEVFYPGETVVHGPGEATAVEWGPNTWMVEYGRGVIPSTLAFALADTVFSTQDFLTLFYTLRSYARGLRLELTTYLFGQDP

| SMILES | Ki [1] [µM] | also measured |
| --- | --- | --- |
| CC1OC2(CCN(CCc3ccccc3)CC2)CN(c2cncc(C(F)(F)F)c2)C1=O (stereo not drawn) [Example 217, 2-methyl-9-phenethyl-4-(5-(trifluoromethyl)pyridin-3-yl)-1-oxa-4,9-diazaspiro[5.5]undecan-3-one hydrochloride] | < 0.5 |  |
| CC1OC2(CCN(CCc3ccccc3)CC2)CN(c2ncccc2C(F)(F)F)C1=O (stereo not drawn) [Example 218, 2-methyl-9-phenethyl-4-(3-(trifluoromethyl)pyridin-2-yl)-1-oxa-4,9-diazaspiro[5.5]undecan-3-one] | < 0.5 |  |
| O=C1N(c2cccnc2C(F)(F)F)CC2(CCN(CCc3ccccc3F)CC2)OC12CC2 [Example 219, 8-(2-fluorophenethyl)-12-(2-(trifluoromethyl)pyridin-3-yl)-4-oxa-8,12-diazadispiro[2.1.5.3]tridecan-13-one] | < 0.5 |  |
| O=C1N(c2ncccc2C(F)(F)F)CC2(CCN(CCc3ccccc3F)CC2)OC12CC2 [Example 220, 8-(2-fluorophenethyl)-12-(3-(trifluoromethyl)pyridin-2-yl)-4-oxa-8,12-diazadispiro[2.1.5.3]tridecan-13-one hydrochloride] | < 0.5 |  |
| CC1OC2(CCN(CCc3ccccc3F)CC2)CN(c2ncccc2C(F)(F)F)C1=O (stereo not drawn) [Example 221, 9-(2-fluorophenethyl)-2-methyl-4-(3-(trifluoromethyl)pyridin-2-yl)-1-oxa-4,9-diazaspiro[5.5]undecan-3-one] | < 0.5 |  |
| C[C@H]1OC2(CCN(CCc3ccccc3F)CC2)CN(c2ncccc2C(F)(F)F)C1=O [Example 222a, (R)-9-(2-fluorophenethyl)-2-methyl-4-(3-(trifluoromethyl)pyridin-2-yl)-1-oxa-4,9-diazaspiro[5.5]undecan-3-one] | < 0.5 |  |
| C[C@@H]1OC2(CCN(CCc3ccccc3F)CC2)CN(c2ncccc2C(F)(F)F)C1=O [Example 222b, (S)-9-(2-fluorophenethyl)-2-methyl-4-(3-(trifluoromethyl)pyridin-2-yl)-1-oxa-4,9-diazaspiro[5.5]undecan-3-one] | > 0.5 |  |
| O=C1N(c2cnccc2C(F)(F)F)CC2(CCN(CCc3ccccc3F)CC2)OC12CC2 [Example 223, 8-(2-fluorophenethyl)-12-(4-(trifluoromethyl)pyridin-3-yl)-4-oxa-8,12-diazadispiro[2.1.5.3]tridecan-13-one hydrochloride] | < 0.1 |  |
| O=C1N(c2ccccc2F)CC2(CCN(CCc3ccccc3)CC2)OC12CC2 [Example 224, 12-(2-fluorophenyl)-8-phenethyl-4-oxa-8,12-diazadispiro[2.1.5.3]tridecan-13-one] | < 0.1 |  |
| O=C1N(c2ccccc2)CC2(CCN(CCc3ccccc3)CC2)OC12CC2 [Example 225, 8-phenethyl-12-phenyl-4-oxa-8,12-diazadispiro[2.1.5.3]tridecan-13-one] | < 0.1 |  |
| CC1OC2(CCN(CCc3cccc(N)c3)CC2)CN(c2ccccc2)C1=O (stereo not drawn) [Example 226, 9-(3-aminophenethyl)-2-methyl-4-phenyl-1-oxa-4,9-diazaspiro[5.5]undecan-3-one] | < 0.1 |  |
| CC1OC2(CCN(CCc3ccccc3)CC2)CN(c2cccc(N)c2)C1=O (stereo not drawn) [Example 227, 4-(3-aminophenyl)-2-methyl-9-phenethyl-1-oxa-4,9-diazaspiro[5.5]undecan-3-one] | > 0.5 |  |
| CC1OC2(CCN(CCc3ccc(N)cc3)CC2)CN(c2ccccc2)C1=O (stereo not drawn) [Example 228, 9-(4-aminophenethyl)-2-methyl-4-phenyl-1-oxa-4,9-diazaspiro[5.5]undecan-3-one] |  | Ki: < 0.5 µM |
| CC1OC2(CCN(CCc3ccccc3N)CC2)CN(c2ccccc2)C1=O (stereo not drawn) [Example 229, 9-(2-aminophenethyl)-2-methyl-4-phenyl-1-oxa-4,9-diazaspiro[5.5]undecan-3-one] |  | Ki: < 0.1 µM |
| CC1OC2(CCN(CCc3ccc(N)cn3)CC2)CN(c2ccccc2F)C1=O (stereo not drawn) [Example 230, 9-(2-(5-aminopyridin-2-yl)ethyl)-4-(2-fluorophenyl)-2-methyl-1-oxa-4,9-diazaspiro[5.5]undecan-3-one] |  | μ and σ1 dual binding [2]: ++ |
| Nc1cccc(CCN2CCC3(CC2)CN(c2ccccc2)C(=O)C2(CC2)O3)c1 [Example 231, 8-(3-aminophenethyl)-12-phenyl-4-oxa-8,12-diazadispiro[2.1.5.3]tridecan-13-one] | > 0.5 |  |
| CC1OC2(CCN(CCc3ncccc3N)CC2)CN(c2ccccc2F)C1=O (stereo not drawn) [Example 232, 9-(2-(3-aminopyridin-2-yl)ethyl)-4-(2-fluorophenyl)-2-methyl-1-oxa-4,9-diazaspiro[5.5]undecan-3-one] |  | μ and σ1 dual binding [2]: ++ |
| Nc1cccc(CN2CC3(CCN(CCc4ccccc4)CC3)OCC2=O)c1 [Example 233, 4-(3-aminobenzyl)-9-phenethyl-1-oxa-4,9-diazaspiro[5.5]undecan-3-one hydrochloride] | < 0.5 |  |

| SMILES | Ki [1] [µM] | also measured |
| --- | --- | --- |
| CC1OC2(CCN(CCc3cccnc3N)CC2)CN(c2ccccc2)C1=O (stereo not drawn) [Example 234, 9-(2-(2-aminopyridin-3-yl)ethyl)-2-methyl-4-phenyl-1-oxa-4,9-diazaspiro[5.5]undecan-3-one hydrochloride] |  | Ki: < 0.5 µM |
| Nc1cccc(CCN2CCC3(CC2)CN(Cc2ccc(C(F)(F)F)cn2)C(=O)CO3)c1 [Example 235, 9-(3-aminophenethyl)-4-((5-(trifluoromethyl)pyridin-2-yl)methyl)-1-oxa-4,9-diazaspiro[5.5]undecan-3-one] | > 0.5 |  |
| CC1OC2(CCN(CCc3ccc(N)cn3)CC2)CN(c2ccccc2)C1=O (stereo not drawn) [Example 236, 9-(2-(5-aminopyridin-2-yl)ethyl)-2-methyl-4-phenyl-1-oxa-4,9-diazaspiro[5.5]undecan-3-one] | > 0.5 |  |
| CC1OC2(CCN(CCn3ccc(N)n3)CC2)CN(c2ccccc2)C1=O (stereo not drawn) [Example 237, 9-(2-(3-amino-1H-pyrazol-1-yl)ethyl)-2-methyl-4-phenyl-1-oxa-4,9-diazaspiro[5.5]undecan-3-one hydrochloride] | > 0.5 |  |
| CC(C)C1OC2(CCN(CCc3cccnc3N)CC2)CN(c2ccccc2F)C1=O (stereo not drawn) [Example 238, 9-(2-(2-aminopyridin-3-yl)ethyl)-4-(2-fluorophenyl)-2-isopropyl-1-oxa-4,9-diazaspiro[5.5]undecan-3-one dihydrochloride] |  | Ki: < 0.1 µM |
| Nc1cccc(CCN2CCC3(CC2)CN(Cc2ccc(C(F)(F)F)cn2)C(=O)C2(CC2)O3)c1 [Example 239, 8-(3-aminophenethyl)-12-{[5-(trifluoromethyl)pyridin-2-yl]methyl}-4-oxa-8,12-diazadispiro[2.1.5.3]tridecan-13-one] | > 0.5 |  |
| CC1OC2(CCN(CCc3cccnc3N)CC2)CN(c2cnccc2C(F)(F)F)C1=O (stereo not drawn) [Example 240, 9-(2-(2-aminopyridin-3-yl)ethyl)-2-methyl-4-(4-(trifluoromethyl)pyridin-3-yl)-1-oxa-4,9-diazaspiro[5.5]undecan-3-one hydrochloride] | > 0.5 |  |
| CC(=O)Nc1ccc(CCN2CCC3(CC2)CN(c2ccccc2)C(=O)C(C)O3)cc1.Cl (stereo not drawn) [Example 241, N-(4-(2-(2-methyl-3-oxo-4-phenyl-1-oxa-4,9-diazaspiro[5.5]undecan-9-yl)ethyl)phenyl)acetamide hydrochloride] |  | μ and σ1 dual binding: ++ |
| CC(=O)Nc1cccc(N2CC3(CCN(CCc4ccccc4)CC3)OC(C)C2=O)c1 (stereo not drawn) [Example 242, N-(3-(2-methyl-3-oxo-9-phenethyl-1-oxa-4,9-diazaspiro[5.5]undecan-4-yl)phenyl)acetamide] |  | μ and σ1 dual binding: ++ |
| CC(=O)Nc1cccc(CCN2CCC3(CC2)CN(c2ccccc2)C(=O)C(C)O3)c1 (stereo not drawn) [Example 243, N-(3-(2-(2-methyl-3-oxo-4-phenyl-1-oxa-4,9-diazaspiro[5.5]undecan-9-yl)ethyl)phenyl)acetamide] | < 0.5 |  |
| CC(=O)Nc1cccc(CCN2CCC3(CC2)CN(c2ccccc2)C(=O)[C@H](C)O3)c1 [Example 244a, (S)-N-(3-(2-(2-methyl-3-oxo-4-phenyl-1-oxa-4,9-diazaspiro[5.5]undecan-9-yl)ethyl)phenyl)acetamide hydrochloride] | < 0.5 |  |
| CC(=O)Nc1cccc(CCN2CCC3(CC2)CN(c2ccccc2)C(=O)[C@@H](C)O3)c1 [Example 244b, (R)-N-(3-(2-(2-methyl-3-oxo-4-phenyl-1-oxa-4,9-diazaspiro[5.5]undecan-9-yl)ethyl)phenyl)acetamide hydrochloride] | < 0.1 |  |
| CC(=O)Nc1ccccc1CCN1CCC2(CC1)CN(c1ccccc1)C(=O)C(C)O2 (stereo not drawn) [Example 245, N-(2-(2-(2-methyl-3-oxo-4-phenyl-1-oxa-4,9-diazaspiro[5.5]undecan-9-yl)ethyl)phenyl)acetamide] |  | μ and σ1 dual binding: ++ |
| CC(=O)Nc1cccc(CCN2CCC3(CC2)CN(c2ccccc2)C(=O)C2(CC2)O3)c1 [Example 246, N-[3-(2-{13-oxo-12-phenyl-4-oxa-8,12-diazadispiro[2.1.5.3]tridecan-8-yl}ethyl)phenyl]acetamide] |  | Ki: < 0.5 µM |
| CC(C)C(=O)Nc1cccc(CCN2CCC3(CC2)CN(c2ccccc2)C(=O)C(C)O3)c1 (stereo not drawn) [Example 247, N-(3-(2-(2-methyl-3-oxo-4-phenyl-1-oxa-4,9-diazaspiro[5.5]undecan-9-yl)ethyl)phenyl)isobutyramide] |  | μ and σ1 dual binding [2]: ++ |
| CC1OC2(CCN(CCc3cccc(NC(=O)N(C)C)c3)CC2)CN(c2ccccc2)C1=O (stereo not drawn) [Example 248, 1,1-dimethyl-3-(3-(2-(2-methyl-3-oxo-4-phenyl-1-oxa-4,9-diazaspiro[5.5]undecan-9-yl)ethyl)phenyl)urea] |  | μ and σ1 dual binding [2]: ++ |
| CC(=O)Nc1cccc(CN2CC3(CCN(CCc4ccccc4)CC3)OCC2=O)c1 [Example 249, N-(3-((3-oxo-9-phenethyl-1-oxa-4,9-diazaspiro[5.5]undecan-4-yl)methyl)phenyl)acetamide hydrochloride] | > 0.5 |  |
| CC(=O)Nc1cccnc1CCN1CCC2(CC1)CN(c1ccccc1F)C(=O)C(C)O2 (stereo not drawn) [Example 250, N-(2-(2-(4-(2-fluorophenyl)-2-methyl-3-oxo-1-oxa-4,9-diazaspiro[5.5]undecan-9-yl)ethyl)pyridin-3-yl)acetamide] | > 0.5 |  |
